Measurements from US20240150423A1, “GLP-1 ANALOGUE-MODIFIED DIMERS WITH DIFFERENT CONFIGURATIONS, PREPARATION METHOD THEREOF, AND APPLICATION THEREOF IN TREATMENT OF TYPE II DIABETES” (Nanjing Finepeptide Biopharmaceutical Co.,Ltd, priority 2019, published 2024).
Non-standard residues stand in square brackets, D forms with d. No end group written: not given here. bAib = not defined here; PEG = not defined here; βAla = NCCC(=O)O

System: Normal Kunming (KM) mice
Assay: multiple OGTT (mOGTT): hypoglycemic duration after a single administration
Format: in vivo
Details: monomeric peptides, single injection at the same dose (1.126 nmol), subcutaneous
From the text: • 1. Methods: Normal Kunming (KM) mice (purchased from Guangdong Animal Center) were used for oral glucose tolerance test (OGTT) to obtain the hypoglycemic activity and durability of drug. […] The blood glucose meter and blood glucose test paper were from Bayer […]. The average blood glucose of each group was used as an evaluation standard: When the average blood glucose of experimental group was higher than that of the NaCl control group for two times, the measurement stopped and the hypoglycemic period compared to the blank control group was the effective duration. • 2. Results • 2.1 single OGTTs: after a single administration, the mice were orally administered glucose once and measured the blood glucose from the tail blood at 0, 10, 20, 40, 60 and 120 min. […] The duration of each monomer group was about 1⁄2-1⁄4 of the duration of its corresponding dimer group. […] Therefore, the 2G3 peptide was selected for treating type II diabetes (T2D) in vivo and subsequent experiments.

First: His-Ala-Glu-Gly-Thr-Phe-Thr-Cys-Asp-Val-Ser-Ser-Tyr-Leu-Glu-Gly-Gln-Ala-Ala-Lys[N-α-(N-α-oleoyl-L-γ-glutamyl)]-Glu-Phe-Ile-Ala-Trp-Leu-Val-Arg-Gly-Arg-Gly-NH2 (HAEGTFTCDVSSYLEGQAAXEFIAWLVRGRG; oleoyl-gamma-Glu on Lys; C-terminal amide; Sequence is synthesized; (20)..(20) Xaa is 26Lys[N-e-(N-a-oleoyl-L-g-glutamyl)]; (31)..(31) N-terminal) [G8 series 59]
Second: His-Ala-Glu-Gly-Thr-Phe-Thr-Cys-Asp-Val-Ser-Ser-Tyr-Leu-Glu-Gly-Gln-Ala-Ala-Lys[N-ϵ-(N-α-Palmitoyl-L-γ-glutamyl)]-Glu-Phe-Ile-Ala-Trp-Leu-Val-Arg-Gly-Arg-Gly-NH2 (HAEGTFTCDVSSYLEGQAAXEFIAWLVRGRG; palmitoyl-gamma-Glu on Lys; C-terminal amide; Sequence is synthesized; (20)..(20) Xaa is 26Lys[N-e-(N-a-palmitoyl-L-g-glutamyl)]; (31)..(31) N-terminal) [G8 series 57]
The “Hypoglycemic” value of the first is higher: 3 days for the first, 2 days for the second.

Compared with “His-Ala-Glu-Gly-Thr-Phe-Thr-Cys-Asp-Val-Ser-Ser-Tyr-Leu-Glu-Gly-Gln-Ala-Ala-Lys[N-ϵ-(N-α-Palmitoyl-L-γ-glutamyl)]-Glu-Phe-Ile-Ala-Trp-Leu-Val-Arg-Gly-Arg-Gly-OH (HAEGTFTCDVSSYLEGQAAXEFIAWLVRGRG; palmitoyl-gamma-Glu on Lys; C-terminal acid; Sequence is synthesized; (20)..(20) Xaa is 26Lys[N-e-(N-a-palmitoyl-L-g-glutamyl)]; (31)..(31) C-terminal) [G8 series 56]”, “His-Ala-Glu-Gly-Thr-Phe-Thr-Ser-Asp-Val-Cys-Ser-Tyr-Leu-Glu-Gly-Gln-Ala-Ala-Lys[N-ϵ-(N-α-Palmitoyl)]-Glu-Phe-Ile-Ala-Trp-Leu-Val-Arg-Gly-Arg-Gly-NH2 (HAEGTFTSDVCSYLEGQAAXEFIAWLVRGRG; palmitoyl on Lys; C-terminal amide; Sequence is synthesized; (20)..(20) Xaa is 26Lys[N-e-(N-a-palmitoyl-L-g-glutamyl)]; (31)..(31) N-terminal) [G4 series 25]” is higher in “Hypoglycemic” value: 1 days for the first, 5 days for the second.

Going from “His-Ala-Glu-Gly-Thr-Phe-Thr-Ser-Asp-Val-Cys-Ser-Tyr-Leu-Glu-Gly-Gln-Ala-Ala-Lys[N-ϵ-(N-α-Palmitoyl)]-Glu-Phe-Ile-Ala-Trp-Leu-Val-Arg-Gly-Arg-Gly-OH (HAEGTFTSDVCSYLEGQAAXEFIAWLVRGRG; palmitoyl on Lys; C-terminal acid; Sequence is synthesized; (20)..(20) Xaa is 26Lys[N-e-(N-a-palmitoyl-L-g-glutamyl)]; (31)..(31) C-terminal) [G4 series 24]” to “His-Ala-Glu-Gly-Thr-Phe-Thr-Ser-Asp-Val-Cys-Ser-Tyr-Leu-Glu-Gly-Gln-Ala-Ala-Lys[N-ϵ-(N-α-Palmitoyl-L-γ-glutamyl)]-Glu-Phe-Ile-Ala-Trp-Leu-Val-Arg-Gly-Arg-Gly-NH2 (HAEGTFTSDVCSYLEGQAAXEFIAWLVRGRG; palmitoyl-γ-glutamyl on Lys; C-terminal amide; Sequence is synthesized; (20)..(20) Xaa is Xaa is 26Lys[N-e-(N-a-Palmitoyl-g-glutamyl)]; (31)..(31) N-terminal) [G2 series 8]”, the “Hypoglycemic” value rises from 3 days to 5 days.

“His-Ala-Glu-Gly-Thr-Phe-Thr-Ser-Asp-Val-Cys-Ser-Tyr-Leu-Glu-Gly-Gln-Ala-Ala-Lys[N-ϵ-(N-α-oleoyl)]-Glu-Phe-Ile-Ala-Trp-Leu-Val-Arg-Gly-Arg-Gly-NH2 (HAEGTFTSDVCSYLEGQAAXEFIAWLVRGRG; oleoyl on Lys; C-terminal amide; Sequence is synthesized; (20)..(20) Xaa is 26Lys[N-e-(N-a-oleoyl-L-g-glutamyl)]; (31)..(31) N-terminal) [G4 series 27]” was tested, and the “Hypoglycemic” value was 6 days.

Same assay, conditions: single injection at the same dose (1.126 nmol), subcutaneous

Going from “2G5 series 44: disulfide-linked homodimer of monomer SEQ ID NO: 44 (HXEGTFTSDVSCYLEGQAAXEFIAWLVXGRG; disulfide-linked homodimer; Sequence is synthesized; (2)..(2) Xaa is bAla; (20)..(20) Xaa is 26Lys[N-e-(N-a-palmitoyl-L-g-glutamyl)]; (28)..(28) Xaa is 26Lys[N-e-(N-a-palmitoyl-L-g-glutamyl)]; (31)..(31) N-terminal)” to “2G6 series 49: disulfide-linked homodimer of monomer SEQ ID NO: 49 (HXEGTFTSDVSCYLEGQAAXEFIAWLVRGRG; disulfide-linked homodimer; Sequence is synthesized; (2)..(2) Xaa is bAib; (20)..(20) Xaa is 26Lys[N-e-(N-a-oleoyl-L-g-glutamyl)]; (31)..(31) N-terminal)”, the “Hypoglycemic duration” value rises from 6 days to 17 days.

Going from “2G6 series 50: disulfide-linked homodimer of monomer SEQ ID NO: 50 (HXEGTFTSDVSCYLEGQAAXEFIAWLVRGRG; disulfide-linked homodimer; Sequence is synthesized; (2)..(2) Xaa is bAla; (20)..(20) Xaa is 26Lys[N-e-(N-a-oleoyl-L-g-glutamyl)]; (31)..(31) N-terminal)” to “2G7 series 54: disulfide-linked homodimer of monomer SEQ ID NO: 54 (H[bAib]EGTFTSDVSCYLEGQAAKEFIAWLVR[bAib]R-NH2; reading uncertain; also: disulfide-linked homodimer, disulfide at 12, other end not in the chain, printed as His-βAib-Glu-Gly-Thr-Phe-Thr-Ser-Asp-Val-Ser-Cys-Tyr-Leu-Glu-Gly-Gln-Ala-Ala-Lys-Glu-Phe-Ile-Ala-Trp-Leu-Val-Arg-βAib-Arg-NH2)”, the “Hypoglycemic duration” value falls from 16 days to 5 days.

Going from “2G7 series 55: disulfide-linked homodimer of monomer SEQ ID NO: 55 (H[βAla]EGTFTSDVSCYLEGQAAKEFIAWLVR[βAla]R-NH2; also: disulfide-linked homodimer, disulfide at 12, other end not in the chain)” to “2G8 series 56: disulfide-linked homodimer of monomer SEQ ID NO: 56 (HAEGTFTCDVSSYLEGQAAXEFIAWLVRGRG; disulfide-linked homodimer; Sequence is synthesized; (20)..(20) Xaa is 26Lys[N-e-(N-a-palmitoyl-L-g-glutamyl)]; (31)..(31) C-terminal)”, the “Hypoglycemic duration” value falls from 4 days to 2 days.

First: 2G8 series 57: disulfide-linked homodimer of monomer SEQ ID NO: 57 (HAEGTFTCDVSSYLEGQAAXEFIAWLVRGRG; disulfide-linked homodimer; Sequence is synthesized; (20)..(20) Xaa is 26Lys[N-e-(N-a-palmitoyl-L-g-glutamyl)]; (31)..(31) N-terminal)
Second: 2G8 series 58: disulfide-linked homodimer of monomer SEQ ID NO: 58 (HAEGTFTCDVSSYLEGQAAXEFIAWLVRGRG; disulfide-linked homodimer; Sequence is synthesized; (20)..(20) Xaa is 26Lys[N-e-(N-a-oleoyl-L-g-glutamyl)]; (31)..(31) C-terminal)
The “Hypoglycemic duration” value of the first is higher: 5 days for the first, 3 days for the second.

Compared with “2G8 series 59: disulfide-linked homodimer of monomer SEQ ID NO: 59 (HAEGTFTCDVSSYLEGQAAXEFIAWLVRGRG; disulfide-linked homodimer; Sequence is synthesized; (20)..(20) Xaa is 26Lys[N-e-(N-a-oleoyl-L-g-glutamyl)]; (31)..(31) N-terminal)”, “2G8 series 66: disulfide-linked homodimer of monomer SEQ ID NO: 66 (HXEGTFTCDVSSYLEGQAAXEFIAWLVRGRG; disulfide-linked homodimer; Sequence is synthesized; (2)..(2) Xaa is bAib; (20)..(20) Xaa is 26Lys[N-e-(N-a-oleoyl-L-g-glutamyl)]; (31)..(31) N-terminal)” is higher in “Hypoglycemic duration” value: 5 days for the first, 8 days for the second.

Compared with “2G8 series 67: disulfide-linked homodimer of monomer SEQ ID NO: 67 (H[bAib]EGTFTCDVSSYLEGQAAKEFIAWLVR[bAib]R; reading uncertain; also: disulfide-linked homodimer of two chains, disulfide at 8, other end not in the chain)”, “2G8 series 68: disulfide-linked homodimer of monomer SEQ ID NO: 68 (HXEGTFTCDVSSYLEGQAAXEFIAWLVRGRG; disulfide-linked homodimer; Sequence is synthesized; (2)..(2) Xaa is bAla; (20)..(20) Xaa is 26Lys[N-e-(N-a-oleoyl-L-g-glutamyl)]; (31)..(31) N-terminal)” is higher in “Hypoglycemic duration” value: 3 days for the first, 7 days for the second.

Compared with “2G8 series 69: disulfide-linked homodimer of monomer SEQ ID NO: 69 (H[βAla]EGTFTCDVSSYLEGQAAKEFIAWLVR[βAla]R; also: disulfide-linked homodimer)”, “2G9 series 71: disulfide-linked homodimer of PEG-modified monomer SEQ ID NO: 71 (HAEGTFTSDVSCYLEGQAAKEFIAWLVRGR-{NH2-PEG}; reading uncertain; also: disulfide-linked homodimer)” is higher in “Hypoglycemic duration” value: 3 days for the first, 5 days for the second.
